Measurements from patent US9701662B2, “Herbicidal compounds” (Syngenta Participations AG, priority 2014, dated 2017).

Legend:
Assay type in all cases: in vivo
[1] = tested on: Amaranthus retoflexus (AMARE); experiment: Post-emergence glasshouse herbicide test; details: post-emergence (sprayed after 8 days cultivation), 1000 g/h, evaluated after 13 days, five point scale
Procedure: (§1) Seeds of a variety of test species are sown in standard soil in pots (Lolium perenne (LOLPE), Solanum nigrum (SOLNI), Amaranthus retoflexus (AMARE), Setaria faberi (SETFA), Echinochloa crus-galli (ECHCG), Ipomoea hederacea (IPOHE)). After cultivation for one day (pre-emergence) or after 8 days cultivation (post-emergence) under controlled conditions in a glasshouse (at 24/16° C., day/night; 14 hours light; 65% humidity), the plants are sprayed with an aqueous spray solution derived from the formulation of the technical active ingredient in acetone/water (50:50) solution containing 0.5% Tween 20 (polyoxyethelyene sorbitan monolaurate, CAS RN 9005-64-5). Compounds are applied at 1000 g/h. The test plants are then grown in a glasshouse under controlled conditions in a glasshouse (at 24/16° C., day/night; 14 hours light; 65% humidity) and watered twice daily. After 13 days for pre and post-emergence, the test is evaluated for the percentage damage caused to the plant. The biological activities are shown in the following table on a five point scale (5=80-100%; 4=60-79%; 3=40-59%; 2=20-39%; 1=0-19%).

[2] = tested on: Echinochloa crus-galli (ECHCG); experiment: Post-emergence glasshouse herbicide test; details: post-emergence (sprayed after 8 days cultivation), 1000 g/h, evaluated after 13 days, five point scale
Procedure: as §1

[3] = tested on: Ipomoea hederacea (IPOHE); experiment: Post-emergence glasshouse herbicide test; details: post-emergence (sprayed after 8 days cultivation), 1000 g/h, evaluated after 13 days, five point scale
Procedure: as §1

[4] = tested on: Lolium perenne (LOLPE); experiment: Post-emergence glasshouse herbicide test; details: post-emergence (sprayed after 8 days cultivation), 1000 g/h, evaluated after 13 days, five point scale
Procedure: as §1

[5] = tested on: Setaria faberi (SETFA); experiment: Post-emergence glasshouse herbicide test; details: post-emergence (sprayed after 8 days cultivation), 1000 g/h, evaluated after 13 days, five point scale
Procedure: as §1

[6] = tested on: Solanum nigrum (SOLNI); experiment: Post-emergence glasshouse herbicide test; details: post-emergence (sprayed after 8 days cultivation), 1000 g/h, evaluated after 13 days, five point scale
Procedure: as §1

[7] = tested on: Amaranthus retoflexus (AMARE); experiment: Pre-emergence glasshouse herbicide test; details: pre-emergence (sprayed after one day cultivation), 1000 g/h, evaluated after 13 days, five point scale
Procedure: as §1

[8] = tested on: Echinochloa crus-galli (ECHCG); experiment: Pre-emergence glasshouse herbicide test; details: pre-emergence (sprayed after one day cultivation), 1000 g/h, evaluated after 13 days, five point scale
Procedure: as §1

[9] = tested on: Ipomoea hederacea (IPOHE); experiment: Pre-emergence glasshouse herbicide test; details: pre-emergence (sprayed after one day cultivation), 1000 g/h, evaluated after 13 days, five point scale
Procedure: as §1

[10] = tested on: Lolium perenne (LOLPE); experiment: Pre-emergence glasshouse herbicide test; details: pre-emergence (sprayed after one day cultivation), 1000 g/h, evaluated after 13 days, five point scale
Procedure: as §1

[11] = tested on: Setaria faberi (SETFA); experiment: Pre-emergence glasshouse herbicide test; details: pre-emergence (sprayed after one day cultivation), 1000 g/h, evaluated after 13 days, five point scale
Procedure: as §1

[12] = tested on: Solanum nigrum (SOLNI); experiment: Pre-emergence glasshouse herbicide test; details: pre-emergence (sprayed after one day cultivation), 1000 g/h, evaluated after 13 days, five point scale
Procedure: as §1

Cn1nnnc1NC(=O)c1nn(C)c(=O)c(-c2ccccc2C(F)(F)F)c1Cl [Compound 1.037]
5 (5=80-100%): percentage damage caused to the plant, AMARE, POST Application [1] | percentage damage caused to the plant, ECHCG, POST Application [2] | percentage damage caused to the plant, IPOHE, POST Application [3] | percentage damage caused to the plant, LOLPE, POST Application [4] | percentage damage caused to the plant, SETFA, POST Application [5] | percentage damage caused to the plant, SOLNI, POST Application [6] | percentage damage caused to the plant, AMARE, PRE Application [7] | percentage damage caused to the plant, ECHCG, PRE Application [8] | percentage damage caused to the plant, IPOHE, PRE Application [9] | percentage damage caused to the plant, LOLPE, PRE Application [10] | percentage damage caused to the plant, SETFA, PRE Application [11] | percentage damage caused to the plant, SOLNI, PRE Application [12]
